Experimental data published in ChEMBL document CHEMBL4145518, “High anticancer potency on tumor cells of dehydroabietylamine Schiff-base derivatives and a copper(II) complex” (Eur J Med Chem, 2018).
The source made the active and inactive calls. The calls are words filed in the database; no cut-off is given here.

Experiments:
HeLa = assay: Antiproliferative activity against human HeLa cells after 36 hrs by MTT assay; type: functional, cell-based
HepG2 [1] = assay: Antiproliferative activity against human HepG2 cells after 36 hrs by MTT assay; type: functional, cell-based; conditions: HepG2, 36 h
MCF7 = assay: Antiproliferative activity against human MCF7 cells after 36 hrs by MTT assay; type: functional, cell-based; conditions: MCF7, 36 h
A549 = assay: Antiproliferative activity against human A549 cells after 36 hrs by MTT assay; type: functional, cell-based; conditions: A549, 36 h
HUVEC = assay: Cytotoxicity against HUVEC assessed as reduction in cell viability after 36 hrs by MTT assay; type: cell-based; conditions: Homo sapiens
Salmon testes DNA [2] = assay: Binding affinity to salmon sperm DNA assessed as DNA intercalation at 5 10^-5M by ethidium bromide staining based fluorescence assay; type: nucleic-acid assay; conditions: Salmonidae
HepG2 [3] = assay: Induction of apoptosis in human HepG2 cells assessed as early apoptotic cells at 0.1 ug/ml after 24 hrs by Annexin V/propidium iodide staining based flow cytometry (reference value: 7.92%); type: functional
HepG2 [4] = assay: Induction of apoptosis in human HepG2 cells assessed as late apoptotic cells at 0.1 ug/ml after 24 hrs by Annexin V/propidium iodide staining based flow cytometry (reference value: 7.09%); type: functional
HepG2 [5] = assay: Induction of apoptosis in human HepG2 cells assessed as necrotic cells at 0.1 ug/ml after 24 hrs by Annexin V/propidium iodide staining based flow cytometry (reference value: 1.86%); type: functional
HepG2 [6] = assay: Induction of apoptosis in human HepG2 cells assessed as viable cells at 0.1 ug/ml after 24 hrs by Annexin V/propidium iodide staining based flow cytometry (reference value: 83.13%); type: functional; conditions: HepG2, 24 h, read-out: Activity
HepG2 [7] = assay: Induction of apoptosis in human HepG2 cells assessed as early apoptotic cells at 1 ug/ml after 24 hrs by Annexin V/propidium iodide staining based flow cytometry (reference value: 7.92%); type: functional
HepG2 [8] = assay: Induction of apoptosis in human HepG2 cells assessed as late apoptotic cells at 1 ug/ml after 24 hrs by Annexin V/propidium iodide staining based flow cytometry (reference value: 7.09%); type: functional
HepG2 [9] = assay: Induction of apoptosis in human HepG2 cells assessed as necrotic cells at 1 ug/ml after 24 hrs by Annexin V/propidium iodide staining based flow cytometry (reference value: 1.86%); type: functional
HepG2 [10] = assay: Induction of apoptosis in human HepG2 cells assessed as viable cells at 1 ug/ml after 24 hrs by Annexin V/propidium iodide staining based flow cytometry (reference value: 83.13%); type: functional; conditions: HepG2, 24 h, read-out: Activity
HepG2 [11] = assay: Induction of apoptosis in human HepG2 cells assessed as early apoptotic cells at 10 ug/ml after 24 hrs by Annexin V/propidium iodide staining based flow cytometry (reference value: 7.92%); type: functional
HepG2 [12] = assay: Induction of apoptosis in human HepG2 cells assessed as late apoptotic cells at 10 ug/ml after 24 hrs by Annexin V/propidium iodide staining based flow cytometry (reference value: 7.09%); type: functional
HepG2 [13] = assay: Induction of apoptosis in human HepG2 cells assessed as necrotic cells at 10 ug/ml after 24 hrs by Annexin V/propidium iodide staining based flow cytometry (reference value: 1.86%); type: functional
HepG2 [14] = assay: Induction of apoptosis in human HepG2 cells assessed as viable cells at 10 ug/ml after 24 hrs by Annexin V/propidium iodide staining based flow cytometry (reference value: 83.13%); type: functional; conditions: HepG2, 24 h, read-out: Activity
Salmon testes DNA [15] = assay: Binding affinity to salmon sperm DNA assessed as DNA intercalation at 1.5 10^-5M by ethidium bromide staining based fluorescence assay; type: nucleic-acid assay; conditions: Salmonidae
Salmon testes DNA [16] = assay: Binding affinity to salmon sperm DNA assessed as hypochromic shift at 1.5 10^-5M by ethidium bromide staining based fluorescence assay; type: nucleic-acid assay; conditions: Salmonidae
Salmon testes DNA [17] = assay: Binding affinity to salmon sperm DNA assessed as hypochromic shift at 5 10^-5M by ethidium bromide staining based fluorescence assay; type: nucleic-acid assay; conditions: Salmonidae
[18] = Selectivity index, ratio of IC50 for HUVEC to IC50 for human HepG2 cells; type: toxicity; conditions: HUVEC and HepG2 cells, read-out: Ratio IC50
Salmon testes DNA [19] = assay: Binding affinity to salmon sperm DNA assessed as DNA intercalation by ethidium bromide staining based fluorescence assay; type: nucleic-acid assay; conditions: Salmonidae
Androgen receptor = biological target: T1, Androgen receptor (Homo sapiens, UniProt P10275); assay: Binding affinity to androgen receptor (unknown origin)
T1 sequence (P10275 whole entry): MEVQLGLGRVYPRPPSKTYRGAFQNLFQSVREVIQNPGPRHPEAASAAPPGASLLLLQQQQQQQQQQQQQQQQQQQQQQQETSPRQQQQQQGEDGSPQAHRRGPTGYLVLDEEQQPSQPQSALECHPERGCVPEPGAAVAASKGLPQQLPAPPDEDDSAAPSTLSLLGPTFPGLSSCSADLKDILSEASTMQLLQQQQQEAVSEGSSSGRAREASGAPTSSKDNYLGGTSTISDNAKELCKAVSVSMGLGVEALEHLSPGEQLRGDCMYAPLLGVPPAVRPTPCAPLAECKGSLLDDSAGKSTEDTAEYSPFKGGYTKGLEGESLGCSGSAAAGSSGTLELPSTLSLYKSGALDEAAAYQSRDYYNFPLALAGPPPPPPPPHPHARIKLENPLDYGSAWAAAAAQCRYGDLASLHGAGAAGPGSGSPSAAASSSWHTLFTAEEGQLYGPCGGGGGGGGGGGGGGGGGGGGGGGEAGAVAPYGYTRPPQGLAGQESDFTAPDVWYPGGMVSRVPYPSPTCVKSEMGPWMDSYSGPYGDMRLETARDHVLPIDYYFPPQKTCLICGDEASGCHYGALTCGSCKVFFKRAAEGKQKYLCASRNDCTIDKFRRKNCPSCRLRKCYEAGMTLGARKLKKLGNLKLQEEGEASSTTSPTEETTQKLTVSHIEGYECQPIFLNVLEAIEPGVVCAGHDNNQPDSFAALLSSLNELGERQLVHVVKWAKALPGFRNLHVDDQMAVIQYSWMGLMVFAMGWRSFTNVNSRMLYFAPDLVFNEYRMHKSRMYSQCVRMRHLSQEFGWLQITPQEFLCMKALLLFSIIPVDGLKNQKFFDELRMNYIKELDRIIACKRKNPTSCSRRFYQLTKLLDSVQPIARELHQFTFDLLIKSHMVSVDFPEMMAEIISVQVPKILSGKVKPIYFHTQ

SMILES	IC50 (HeLa)	IC50 (HepG2 [1])	IC50 (MCF7)	IC50 (A549)	IC50 (HUVEC)	Activity (Salmon testes DNA [2])	Activity (HepG2 [3])	Activity (HepG2 [4])	Activity (HepG2 [5])	viability at 0.1 µg/mL (HepG2 [6])	Activity (HepG2 [7])	Activity (HepG2 [8])	Activity (HepG2 [9])	viability at 1 µg/mL (HepG2 [10])	Activity (HepG2 [11])	Activity (HepG2 [12])	Activity (HepG2 [13])	viability at 10 µg/mL (HepG2 [14])	further results
CCN(CC)c1ccc(/C=N/C[C@]2(C)CCC[C@]3(C)c4ccc(C(C)C)cc4CC[C@@H]23)c(O)c1	11.2 µM	10.7 µM	14.1 µM	17 µM	43.1 µM	Active	–	–	–	–	–	–	–	–	–	–	–	–	–
CC(C)c1ccc2c(c1)CC[C@H]1[C@](C)(C/N=C/c3ncc[nH]3)CCC[C@]21C	3.22 µM	0.24 µM	4.28 µM	3.17 µM	7.67 µM	–	26.33%	18.54%	0.69%	54.4%	51.15%	10.13%	0.25%	38.5%	98.32%	0.32%	0%	1.06%	Activity (Salmon testes DNA [15]): Active; Activity (Salmon testes DNA [16]): Active
CC(C)c1ccc2c(c1)CC[C@H]1[C@](C)(C/N=C/c3c[nH]cn3)CCC[C@]21C	7.86 µM	0.14 µM	2.58 µM	7 µM	26 µM	Active	33.71%	12.9%	0.66%	52.7%	60.49%	6.39%	0.23%	32.9%	98.78%	0.29%	0%	0.93%	Activity (Salmon testes DNA [17]): Active; selectivity ratio [18]: 180
CC(C)c1ccc2c(c1)CC[C@H]1[C@](C)(CN)CCC[C@]21C	2.02 µM	2.56 µM	19.4 µM	5.02 µM	1.27 µM	–	22.94%	15.46%	0.69%	60.9%	44.79%	22.98%	0.24%	32%	91.91%	0.7%	0%	1.4%	–
CC(C)c1ccc2c(c1)CC[C@H]1[C@](C)(C/N=C/c3cc(C(C)(C)C)cc(C(C)(C)C)c3O)CCC[C@]21C	41 µM	17.6 µM	5.41 µM	40 µM	41 µM	Active	–	–	–	–	–	–	–	–	–	–	–	–	–
CC(C)c1ccc2c(c1)CC[C@H]1[C@](C)(C/N=C/c3cccc(C(C)(C)C)c3O)CCC[C@]21C	20 µM	10.5 µM	25 µM	41 µM	33 µM	Active	–	–	–	–	–	–	–	–	–	–	–	–	–
COc1cccc2c1C(=O)c1c(O)c3c(c(O)c1C2=O)C[C@@](O)(C(=O)CO)C[C@@H]3O[C@H]1C[C@H](N)[C@H](O)[C@H](C)O1 [DOXORUBICIN]	–	–	–	–	–	–	34.49%	11.74%	0.62%	53.1%	47.19%	12.6%	0.35%	39.9%	70.12%	3.57%	0%	26.3%	Activity (Salmon testes DNA [19]): Active
CC(C)c1ccc2c(c1)C(=O)C[C@H]1[C@@](C)(CNC(=O)c3ccccc3)CCC[C@]21C	–	–	–	–	–	–	–	–	–	–	–	–	–	–	–	–	–	–	IC50 (Androgen receptor): 83.8 µM
